Measurements as given in the supplement of paper PMC10307832.

Tests used:
Test in all cases: relative viability (nuclei count vs DMSO), 5 days (fraction); higher = more cells survive
NCI-H358 = tested on: NCI-H358
Summary of the method: (§1)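 Lung cancer cell lines in 1536-well plates were dosed by pin tool the day after seeding, either with one drug alone or with a fixed anchor-drug dose plus five library-drug doses (not always all listed) in √10 steps. After 5 days, cells were fixed and their nuclei stained in one step (final 0.05% Triton X-100, 1% formaldehyde, 1 ug/ml Hoechst), then counted on 4× images. Relative viability is the nuclei count in treated wells divided by that in vehicle wells. Values are medians of duplicate plates.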

HCC-44 = tested on: HCC-44
Summary of the method: as §1

NCI-H650 = tested on: NCI-H650
Summary of the method: as §1

NCI-H596 = tested on: NCI-H596
Summary of the method: as §1

NCI-H23 = tested on: NCI-H23
Summary of the method: as §1

A-427 = tested on: A-427
Summary of the method: as §1

COR-L23 = tested on: COR-L23
Summary of the method: as §1

NCI-H1792 = tested on: NCI-H1792
Summary of the method: as §1

NCI-H1437 = tested on: NCI-H1437
Summary of the method: as §1

201T = tested on: 201T
Summary of the method: as §1

NCI-H1650 = tested on: NCI-H1650
Summary of the method: as §1

SK-MES-1 = tested on: SK-MES-1
Summary of the method: as §1

NCI-H1975 = tested on: NCI-H1975
Summary of the method: as §1

HCC-827 = tested on: HCC-827
Summary of the method: as §1

BEN = tested on: BEN
Summary of the method: as §1

NCI-H441 = tested on: NCI-H441
Summary of the method: as §1

EKVX = tested on: EKVX
Summary of the method: as §1

HARA = tested on: HARA
Summary of the method: as §1

HCC-15 = tested on: HCC-15
Summary of the method: as §1

NCI-H838 = tested on: NCI-H838
Summary of the method: as §1

Q: For `Nc1ccn([C@@H]2O[C@H](CO)[C@@H](O)[C@@H]2O)c(=O)n1` [Cytarabine] + CS(=O)(=O)N1CCN(Cc2cc3nc(-c4cccc5[nH]ncc45)nc(N4CCOCC4)c3s2)CC1 [Pictilisib] (partner 1 µM), which relative viability (NCI-H358; first compound 0.005 µM) is on record?
A: The relative viability was 0.318.

Q: What about the relative viability (NCI-H358; first compound 0.01581 µM) of the same molecule?
A: Its relative viability is 0.288.

Q: And the relative viability (NCI-H358; first compound 0.05 µM)?
A: The relative viability was 0.298.

Q: What about the relative viability (NCI-H358; first compound 0.1581 µM) of the same molecule?
A: The relative viability was 0.179.

Q: What about the relative viability (NCI-H358; first compound 0.5 µM) of the same molecule?
A: The relative viability was 0.155.

Q: And the relative viability (HCC-44; first compound 0.005 µM)?
A: Its relative viability is 0.492.

Q: And the relative viability (HCC-44; first compound 0.01581 µM)?
A: Its relative viability is 0.599.

Q: What about the relative viability (HCC-44; first compound 0.05 µM) of the same molecule?
A: Its relative viability is 0.5.

Q: And the relative viability (HCC-44; first compound 0.1581 µM)?
A: The relative viability was 0.349.

Q: And the relative viability (HCC-44; first compound 0.5 µM)?
A: The relative viability was 0.385.

Q: And the relative viability (NCI-H650; first compound 0.005 µM)?
A: Its relative viability is 0.831.

Q: What about the relative viability (NCI-H650; first compound 0.01581 µM) of the same molecule?
A: The relative viability was 0.688.

Q: What about the relative viability (NCI-H650; first compound 0.05 µM) of the same molecule?
A: Its relative viability is 0.419.

Q: What about the relative viability (NCI-H650; first compound 0.1581 µM) of the same molecule?
A: Its relative viability is 0.224.

Q: And the relative viability (NCI-H650; first compound 0.5 µM)?
A: Its relative viability is 0.214.

Q: And the relative viability (NCI-H596; first compound 0.005 µM)?
A: Its relative viability is 0.432.

Q: And the relative viability (NCI-H596; first compound 0.01581 µM)?
A: The relative viability was 0.396.

Q: What about the relative viability (NCI-H596; first compound 0.05 µM) of the same molecule?
A: Its relative viability is 0.355.

Q: And the relative viability (NCI-H596; first compound 0.1581 µM)?
A: Its relative viability is 0.277.

Q: What about the relative viability (NCI-H596; first compound 0.5 µM) of the same molecule?
A: The relative viability was 0.315.

Q: And the relative viability (NCI-H23; first compound 0.005 µM)?
A: Its relative viability is 0.527.

Q: What about the relative viability (NCI-H23; first compound 0.01581 µM) of the same molecule?
A: Its relative viability is 0.346.

Q: And the relative viability (NCI-H23; first compound 0.05 µM)?
A: The relative viability was 0.327.

Q: What about the relative viability (NCI-H23; first compound 0.1581 µM) of the same molecule?
A: Its relative viability is 0.156.

Q: What about the relative viability (NCI-H23; first compound 0.5 µM) of the same molecule?
A: The relative viability was 0.138.

Q: And the relative viability (A-427; first compound 0.005 µM)?
A: Its relative viability is 0.576.

Q: And the relative viability (A-427; first compound 0.01581 µM)?
A: The relative viability was 0.419.

Q: What about the relative viability (A-427; first compound 0.05 µM) of the same molecule?
A: The relative viability was 0.314.

Q: And the relative viability (A-427; first compound 0.1581 µM)?
A: The relative viability was 0.178.

Q: What about the relative viability (A-427; first compound 0.5 µM) of the same molecule?
A: The relative viability was 0.147.

Q: What about the relative viability (COR-L23; first compound 0.005 µM) of the same molecule?
A: Its relative viability is 0.637.

Q: What about the relative viability (COR-L23; first compound 0.01581 µM) of the same molecule?
A: Its relative viability is 0.51.

Q: And the relative viability (COR-L23; first compound 0.05 µM)?
A: The relative viability was 0.532.

Q: What about the relative viability (COR-L23; first compound 0.1581 µM) of the same molecule?
A: The relative viability was 0.171.

Q: What about the relative viability (COR-L23; first compound 0.5 µM) of the same molecule?
A: Its relative viability is 0.112.

Q: What about the relative viability (NCI-H1792; first compound 0.005 µM) of the same molecule?
A: The relative viability was 0.314.

Q: And the relative viability (NCI-H1792; first compound 0.01581 µM)?
A: The relative viability was 0.207.

Q: What about the relative viability (NCI-H1792; first compound 0.05 µM) of the same molecule?
A: The relative viability was 0.216.

Q: What about the relative viability (NCI-H1792; first compound 0.1581 µM) of the same molecule?
A: Its relative viability is 0.174.

Q: And the relative viability (NCI-H1792; first compound 0.5 µM)?
A: Its relative viability is 0.188.

Q: And the relative viability (NCI-H1437; first compound 0.005 µM)?
A: The relative viability was 0.381.

Q: What about the relative viability (NCI-H1437; first compound 0.01581 µM) of the same molecule?
A: Its relative viability is 0.245.

Q: And the relative viability (NCI-H1437; first compound 0.05 µM)?
A: The relative viability was 0.252.

Q: And the relative viability (NCI-H1437; first compound 0.1581 µM)?
A: Its relative viability is 0.112.

Q: What about the relative viability (NCI-H1437; first compound 0.5 µM) of the same molecule?
A: The relative viability was 0.11.

Q: What about the relative viability (201T; first compound 0.005 µM) of the same molecule?
A: Its relative viability is 0.655.

Q: What about the relative viability (201T; first compound 0.01581 µM) of the same molecule?
A: The relative viability was 0.707.

Q: What about the relative viability (201T; first compound 0.05 µM) of the same molecule?
A: The relative viability was 0.738.

Q: And the relative viability (201T; first compound 0.1581 µM)?
A: The relative viability was 0.576.

Q: And the relative viability (201T; first compound 0.5 µM)?
A: The relative viability was 0.416.

Q: And the relative viability (NCI-H1650; first compound 0.005 µM)?
A: Its relative viability is 0.442.

Q: What about the relative viability (NCI-H1650; first compound 0.01581 µM) of the same molecule?
A: Its relative viability is 0.467.

Q: What about the relative viability (NCI-H1650; first compound 0.05 µM) of the same molecule?
A: The relative viability was 0.359.

Q: And the relative viability (NCI-H1650; first compound 0.1581 µM)?
A: The relative viability was 0.205.

Q: What about the relative viability (NCI-H1650; first compound 0.5 µM) of the same molecule?
A: Its relative viability is 0.181.

Q: What about the relative viability (SK-MES-1; first compound 0.005 µM) of the same molecule?
A: The relative viability was 0.333.

Q: And the relative viability (SK-MES-1; first compound 0.01581 µM)?
A: Its relative viability is 0.305.

Q: And the relative viability (SK-MES-1; first compound 0.05 µM)?
A: Its relative viability is 0.227.

Q: What about the relative viability (SK-MES-1; first compound 0.1581 µM) of the same molecule?
A: The relative viability was 0.194.

Q: And the relative viability (SK-MES-1; first compound 0.5 µM)?
A: The relative viability was 0.205.

Q: And the relative viability (NCI-H1975; first compound 0.005 µM)?
A: Its relative viability is 0.271.

Q: And the relative viability (NCI-H1975; first compound 0.01581 µM)?
A: The relative viability was 0.281.

Q: What about the relative viability (NCI-H1975; first compound 0.05 µM) of the same molecule?
A: The relative viability was 0.311.

Q: What about the relative viability (NCI-H1975; first compound 0.1581 µM) of the same molecule?
A: The relative viability was 0.289.

Q: And the relative viability (NCI-H1975; first compound 0.5 µM)?
A: Its relative viability is 0.195.

Q: What about the relative viability (HCC-827; first compound 0.005 µM) of the same molecule?
A: Its relative viability is 1.05.

Q: What about the relative viability (HCC-827; first compound 0.01581 µM) of the same molecule?
A: The relative viability was 0.876.

Q: What about the relative viability (HCC-827; first compound 0.05 µM) of the same molecule?
A: The relative viability was 0.683.

Q: And the relative viability (HCC-827; first compound 0.1581 µM)?
A: The relative viability was 0.474.

Q: What about the relative viability (HCC-827; first compound 0.5 µM) of the same molecule?
A: Its relative viability is 0.408.

Q: What about the relative viability (BEN; first compound 0.005 µM) of the same molecule?
A: Its relative viability is 0.571.

Q: And the relative viability (BEN; first compound 0.01581 µM)?
A: The relative viability was 0.504.

Q: What about the relative viability (BEN; first compound 0.05 µM) of the same molecule?
A: Its relative viability is 0.413.

Q: And the relative viability (BEN; first compound 0.1581 µM)?
A: The relative viability was 0.279.

Q: What about the relative viability (BEN; first compound 0.5 µM) of the same molecule?
A: The relative viability was 0.195.

Q: And the relative viability (NCI-H441; first compound 0.005 µM)?
A: Its relative viability is 0.481.

Q: What about the relative viability (NCI-H441; first compound 0.01581 µM) of the same molecule?
A: Its relative viability is 0.443.

Q: What about the relative viability (NCI-H441; first compound 0.05 µM) of the same molecule?
A: The relative viability was 0.411.

Q: And the relative viability (NCI-H441; first compound 0.1581 µM)?
A: Its relative viability is 0.205.

Q: What about the relative viability (NCI-H441; first compound 0.5 µM) of the same molecule?
A: The relative viability was 0.223.

Q: What about the relative viability (EKVX; first compound 0.005 µM) of the same molecule?
A: Its relative viability is 0.486.

Q: What about the relative viability (EKVX; first compound 0.01581 µM) of the same molecule?
A: The relative viability was 0.362.

Q: What about the relative viability (EKVX; first compound 0.05 µM) of the same molecule?
A: Its relative viability is 0.406.

Q: What about the relative viability (EKVX; first compound 0.1581 µM) of the same molecule?
A: Its relative viability is 0.2.

Q: And the relative viability (EKVX; first compound 0.5 µM)?
A: Its relative viability is 0.163.

Q: And the relative viability (HARA; first compound 0.005 µM)?
A: The relative viability was 0.316.

Q: And the relative viability (HARA; first compound 0.01581 µM)?
A: The relative viability was 0.368.

Q: And the relative viability (HARA; first compound 0.05 µM)?
A: The relative viability was 0.163.

Q: And the relative viability (HARA; first compound 0.1581 µM)?
A: Its relative viability is 0.106.

Q: And the relative viability (HARA; first compound 0.5 µM)?
A: The relative viability was 0.117.

Q: What about the relative viability (HCC-15; first compound 0.005 µM) of the same molecule?
A: The relative viability was 0.709.

Q: What about the relative viability (HCC-15; first compound 0.01581 µM) of the same molecule?
A: The relative viability was 0.704.

Q: What about the relative viability (HCC-15; first compound 0.05 µM) of the same molecule?
A: The relative viability was 0.672.

Q: What about the relative viability (HCC-15; first compound 0.1581 µM) of the same molecule?
A: Its relative viability is 0.504.

Q: And the relative viability (HCC-15; first compound 0.5 µM)?
A: The relative viability was 0.453.

Q: And the relative viability (NCI-H838; first compound 0.005 µM)?
A: Its relative viability is 0.334.

Q: And the relative viability (NCI-H838; first compound 0.01581 µM)?
A: Its relative viability is 0.495.

Q: And the relative viability (NCI-H838; first compound 0.05 µM)?
A: The relative viability was 0.435.

Q: What about the relative viability (NCI-H838; first compound 0.1581 µM) of the same molecule?
A: Its relative viability is 0.257.

Q: And the relative viability (NCI-H838; first compound 0.5 µM)?
A: The relative viability was 0.243.
